Experimental data: the NIST ThermoML archive (doi:10.1016/j.jct.2008.10.010)
Numbers after ± are expanded uncertainties.

Experiment: molar heat capacity at constant pressure; xn = mol fraction of the nth substance listed
Details: 101.3 kPa, Liquid, Small sample (50 mg) DSC

CCC(C)(C)O [2-methylbutan-2-ol] + CCCCCCC
Details	molar heat capacity at constant pressure [J/K/mol]
284.14 K, x1 = 0.0061	220.41 ± 3.4
284.14 K, x1 = 0.0249	226.02 ± 3.5
284.14 K, x1 = 0.0494	229.4 ± 3.5
284.14 K, x1 = 0.1999	234.97 ± 3.6
284.14 K, x1 = 0.4051	235.79 ± 3.6
284.14 K, x1 = 0.5981	234.72 ± 3.6
284.14 K, x1 = 0.7015	233.37 ± 3.6
284.14 K, x1 = 0.9139	231.9 ± 3.6
284.14 K, x1 = 0.9609	232.4 ± 3.6
284.16 K, x1 = 0.1	232.58 ± 3.6
284.16 K, x1 = 0.1547	234.25 ± 3.6
284.16 K, x1 = 0.2993	235.98 ± 3.7
284.16 K, x1 = 0.4986	235.43 ± 3.6
284.18 K, x1 = 0.8023	232.34 ± 3.6
285.15 K, x1 = 0.0061	220.65 ± 3.4
285.15 K, x1 = 0.0249	226.27 ± 3.5
285.15 K, x1 = 0.0494	229.86 ± 3.6
285.15 K, x1 = 0.1	233.16 ± 3.6
285.15 K, x1 = 0.1547	234.99 ± 3.6
285.15 K, x1 = 0.1999	235.77 ± 3.6
285.15 K, x1 = 0.2993	236.86 ± 3.7
285.15 K, x1 = 0.4051	236.78 ± 3.7
285.15 K, x1 = 0.4986	236.52 ± 3.7
285.15 K, x1 = 0.5981	235.88 ± 3.6
285.15 K, x1 = 0.7015	234.58 ± 3.6
285.15 K, x1 = 0.8023	233.57 ± 3.6
285.15 K, x1 = 0.9609	233.54 ± 3.6
285.51 K, x1 = 0.9139	233.61 ± 3.6
286.16 K, x1 = 0.0061	220.9 ± 3.4
286.16 K, x1 = 0.0249	226.64 ± 3.5
286.16 K, x1 = 0.0494	230.34 ± 3.6
286.16 K, x1 = 0.1	233.84 ± 3.6
286.16 K, x1 = 0.1547	235.78 ± 3.6
286.16 K, x1 = 0.1999	236.66 ± 3.7
286.16 K, x1 = 0.2993	237.91 ± 3.7
286.16 K, x1 = 0.4051	237.9 ± 3.7
286.16 K, x1 = 0.4986	237.63 ± 3.7
286.16 K, x1 = 0.5981	237.03 ± 3.7
286.16 K, x1 = 0.7015	235.81 ± 3.6
286.16 K, x1 = 0.8023	234.67 ± 3.6
286.16 K, x1 = 0.9139	234.27 ± 3.6
286.16 K, x1 = 0.9609	234.56 ± 3.6
287.14 K, x1 = 0.0061	221.16 ± 3.4
287.14 K, x1 = 0.0249	226.92 ± 3.5
287.14 K, x1 = 0.0494	230.72 ± 3.6
287.14 K, x1 = 0.1	234.39 ± 3.6
287.14 K, x1 = 0.1547	236.4 ± 3.7
287.14 K, x1 = 0.1999	237.42 ± 3.7
287.14 K, x1 = 0.2993	238.78 ± 3.7
287.14 K, x1 = 0.4051	238.87 ± 3.7
287.14 K, x1 = 0.4986	238.65 ± 3.7
287.14 K, x1 = 0.5981	238.11 ± 3.7
287.14 K, x1 = 0.7015	236.94 ± 3.7
287.14 K, x1 = 0.8023	235.73 ± 3.6
287.14 K, x1 = 0.9139	235.37 ± 3.6
287.14 K, x1 = 0.9609	235.45 ± 3.6
288.15 K, x1 = 0.0061	221.55 ± 3.4
288.15 K, x1 = 0.0249	227.34 ± 3.5
288.15 K, x1 = 0.0494	231.29 ± 3.6
288.15 K, x1 = 0.1	235.13 ± 3.6
288.15 K, x1 = 0.1547	237.25 ± 3.7
288.15 K, x1 = 0.1999	238.28 ± 3.7
288.15 K, x1 = 0.2993	239.83 ± 3.7
288.15 K, x1 = 0.4051	240.03 ± 3.7
288.15 K, x1 = 0.4986	239.84 ± 3.7
288.15 K, x1 = 0.5981	239.38 ± 3.7
288.15 K, x1 = 0.7015	238.26 ± 3.7
288.15 K, x1 = 0.8023	237.01 ± 3.7
288.15 K, x1 = 0.9139	236.54 ± 3.7
288.15 K, x1 = 0.9609	236.62 ± 3.7
289.14 K, x1 = 0.0061	221.82 ± 3.4
289.14 K, x1 = 0.0249	227.63 ± 3.5
289.14 K, x1 = 0.0494	231.74 ± 3.6
289.14 K, x1 = 0.1	235.73 ± 3.6
289.14 K, x1 = 0.1547	237.99 ± 3.7
289.14 K, x1 = 0.1999	239.11 ± 3.7
289.14 K, x1 = 0.2993	240.71 ± 3.7
289.14 K, x1 = 0.4051	241.03 ± 3.7
289.14 K, x1 = 0.4986	240.91 ± 3.7
289.14 K, x1 = 0.5981	240.51 ± 3.7
289.14 K, x1 = 0.7015	239.53 ± 3.7
289.14 K, x1 = 0.8023	238.27 ± 3.7
289.14 K, x1 = 0.9139	237.62 ± 3.7
289.14 K, x1 = 0.9609	237.61 ± 3.7
290.14 K, x1 = 0.0061	222.02 ± 3.4
290.14 K, x1 = 0.0249	227.88 ± 3.5
290.14 K, x1 = 0.0494	232.1 ± 3.6
290.14 K, x1 = 0.1	236.25 ± 3.7
290.14 K, x1 = 0.1547	238.66 ± 3.7
290.14 K, x1 = 0.1999	239.89 ± 3.7
290.14 K, x1 = 0.2993	241.62 ± 3.7
290.14 K, x1 = 0.4051	242.04 ± 3.8
290.14 K, x1 = 0.4986	241.98 ± 3.8
290.14 K, x1 = 0.5981	241.64 ± 3.7
290.14 K, x1 = 0.7015	240.72 ± 3.7
290.14 K, x1 = 0.8023	239.53 ± 3.7
290.14 K, x1 = 0.9139	238.75 ± 3.7
290.14 K, x1 = 0.9609	238.68 ± 3.7
291.15 K, x1 = 0.0061	222.4 ± 3.5
291.15 K, x1 = 0.0249	228.24 ± 3.5
291.15 K, x1 = 0.0494	232.63 ± 3.6
291.15 K, x1 = 0.1	236.91 ± 3.7
291.15 K, x1 = 0.1547	239.46 ± 3.7
291.15 K, x1 = 0.1999	240.73 ± 3.7
291.15 K, x1 = 0.2993	242.6 ± 3.8
291.15 K, x1 = 0.4051	243.13 ± 3.8
291.15 K, x1 = 0.4986	243.16 ± 3.8
291.15 K, x1 = 0.5981	242.84 ± 3.8
291.15 K, x1 = 0.7015	241.97 ± 3.8
291.15 K, x1 = 0.8023	240.74 ± 3.7
291.15 K, x1 = 0.9139	239.92 ± 3.7
291.15 K, x1 = 0.9609	239.8 ± 3.7
292.14 K, x1 = 0.0061	222.7 ± 3.5
292.14 K, x1 = 0.0494	233.02 ± 3.6
292.14 K, x1 = 0.1	237.52 ± 3.7
292.14 K, x1 = 0.1547	240.13 ± 3.7
292.14 K, x1 = 0.1999	241.49 ± 3.7
292.14 K, x1 = 0.2993	243.55 ± 3.8
292.14 K, x1 = 0.4051	244.19 ± 3.8
292.14 K, x1 = 0.4986	244.28 ± 3.8
292.14 K, x1 = 0.5981	243.93 ± 3.8
292.14 K, x1 = 0.7015	243.17 ± 3.8
292.14 K, x1 = 0.8023	241.93 ± 3.8
292.14 K, x1 = 0.9139	241.07 ± 3.7
